Legend:
[1] = Plasma elimination half-life in man; format: in vivo; conditions: human, read-out: plasma elimination half-life, t1/2 (converted)

half-life [1]: 35 h
solubility (physchem; 0.1 M HCl, simulated gastric fluid): 11 mg/mL
solubility (physchem; ethanol/water 1:1, aqueous with cosolvent or surfactant or cyclodextrin): 19 mg/mL
solubility (physchem; water): 6.4 mg/mL
SMILES: Br.Cc1ccc(N2CCN(C)CC2)c2c1CC[C@@H](NC(=O)c1ccc(N3CCOCC3)cc1)C2 [(R)-N-[5-methyl-8-(4-methylpiperazin-1-yl)-1,2,3,4-tetrahydro-2-naphthyl]-4-morpholinobenzamide monohydrobromide]

From patent publication US20060034911A1, “New oral immediated release dosage form” (priority 2002, published 2006)
